We go through 29 compounds from patent US20130274254A1, “INHIBITORS OF CYTOCHROME P450 (CYP3A4)” (Gilead Sciences, Inc., priority 2010, published 2013).

The target of data set [1] is T1, CYP3A4 (Homo sapiens, UniProt P08684). In words: CYP3A inhibition assay, midazolam 1'-hydroxylase activity in pooled human hepatic microsomal fraction. Type of data set: biochemical. As to conditions: pooled human liver microsomes, pH 7.4, probe midazolam (1'-hydroxylation), 0.25 mg/mL microsomal protein. The method, then: Pooled (n≧15 donors) human hepatic microsomal fraction was obtained from BD-Gentest (Woburn, Mass.) who also supplied hydroxy-terfenadine, 4′-hydroxydiclofenac and NADPH regenerating system. Ritonavir was prepared from commercial Norvir® oral solution (Abbott Laboratories, Abbott Park, Ill.). Other reagents were from Sigma-Aldrich (St. Louis, Mo.) and included terfenadine, fexofenadine, BRL 15572, diclofenac and mefenamic acid. […]
(§1) IC50 values (the concentration of inhibitor reducing CYP3A activity by 50%) were calculated by non-linear regression using GraphPad Prism 4.0 software and a sigmoidal model.
[…] For testosterone hydroxylase activity the final microsomal protein concentration was 0.5 mg/mL, the substrate concentration was 50 μM and the LC-MS internal standard was D7-labeled 6β-hydroxytestosterone. After incubation at 37° C. for 5 minutes, metabolic reactions were terminated by treatment with quench solution containing the appropriate internal standard and were subsequently centrifuged before aliquots of the supernatant were removed and diluted with 0.1% (v/v) formic acid for LC-MS analysis.
(§2) For LC-MS analysis the column was a Phenomenex Synergi Max RP 4 μm column (50×2.0 mm) and the injection volume was 5 μL. The MS/MS ion current metabolite/internal standard peak area ratios (PAR) were measured on an Applied Biosystems SciEx API4000 triple quadrupole mass spectrometer coupled to a Leap CTC PAL autosampler with a 20 μL loop and a Shimadzu LC pump with a 25 μL mixer. The initial mobile phase consisted of 94.9% water, 0.1% formic acid, and 5% acetonitrile (v/v/v) pumped at 0.5 mL/min. After 0.5 min the acetonitrile concentration was increased to 30% over 0.5 min. The acetonitrile concentration was then further increased to 100% over 0.5 min and held for 1.3 min, after which the column was re equilibrated at the initial conditions for 1.2 min. Rates of metabolite formation were determined from standard curves using PAR determined with authentic metabolite standards.
On the technique in general: Microsomes from liver hold many membrane-bound enzymes, among them those of drug oxidation.

Data set [2] addresses T1, CYP3A4. Kind of data set: CYP3A inhibition assay, testosterone 6β-hydroxylase activity in pooled human hepatic microsomal fraction. The method, then: Pooled (n≧15 donors) human hepatic microsomal fraction was obtained from BD-Gentest (Woburn, Mass.) who also supplied hydroxy-terfenadine, 4′-hydroxydiclofenac and NADPH regenerating system. Ritonavir was prepared from commercial Norvir® oral solution (Abbott Laboratories, Abbott Park, Ill.). Other reagents were from Sigma-Aldrich (St. Louis, Mo.) and included terfenadine, fexofenadine, BRL 15572, diclofenac and mefenamic acid.
Incubations were performed in duplicate in 50 mM potassium phosphate buffer, pH 7.4 with NADPH regenerating system used as described by the manufacturer. […] The final substrate concentrations used were equal to the apparent Km values for the activities determined under the same conditions. Inhibitors were dissolved in DMSO, and the final concentration of DMSO, from both substrate and inhibitor vehicles, was 1% (v/v). Incubations were performed at 37° C. with shaking and were initiated by addition of substrate. Aliquots were then removed at 0, 7 and 15 minutes. Samples were quenched by treatment with an acetonitrile, formic acid, water (94.8%/0.2%/5%, v/v/v) mixture containing internal standard. Precipitated protein was removed by centrifugation at 3000 rpm for 10 min and aliquots of the supernatant were then subjected to LC-MS analysis.
The LC-MS system consisted of a Waters Acquity UPLC, with a binary solvent manager and a refrigerated (8° C.) sample organizer and sample manager, interfaced to a Micromass Quattro Premier tandem mass spectrometer operating in electrospray ionization mode. The column was a Waters Acquity UPLC BEH C18 2.1×50 mm, 1.7 μm pore size. Mobile phases consisted of mixtures of acetonitrile, formic acid and water, the composition for mobile phase A being 1%/0.2%/98.8% (v/v/v) and that for mobile phase B being 94.8%/0.2%/5% (v/v/v). The injection volumes were 5 μL and the flow rate was 0.8 mL/min. Concentrations of metabolites were determined by reference to standard curves generated with authentic analytes under the same conditions as the incubations.
as §1
For midazolam hydroxylase determination the final concentrations of microsomal protein and […] substrate were 0.25 mg/mL and 2.5 μM, respectively, and the LC-MS internal standard was 1α-hydroxytriazolam. For testosterone hydroxylase activity the final microsomal protein concentration was 0.5 mg/mL, the substrate concentration was 50 μM and the LC-MS internal standard was D7-labeled 6β-hydroxytestosterone. After incubation at 37° C. for 5 minutes, metabolic reactions were terminated by treatment with quench solution containing the appropriate internal standard and were subsequently centrifuged before aliquots of the supernatant were removed and diluted with 0.1% (v/v) formic acid for LC-MS analysis.
as §2

T1 sequence (P08684 2-503): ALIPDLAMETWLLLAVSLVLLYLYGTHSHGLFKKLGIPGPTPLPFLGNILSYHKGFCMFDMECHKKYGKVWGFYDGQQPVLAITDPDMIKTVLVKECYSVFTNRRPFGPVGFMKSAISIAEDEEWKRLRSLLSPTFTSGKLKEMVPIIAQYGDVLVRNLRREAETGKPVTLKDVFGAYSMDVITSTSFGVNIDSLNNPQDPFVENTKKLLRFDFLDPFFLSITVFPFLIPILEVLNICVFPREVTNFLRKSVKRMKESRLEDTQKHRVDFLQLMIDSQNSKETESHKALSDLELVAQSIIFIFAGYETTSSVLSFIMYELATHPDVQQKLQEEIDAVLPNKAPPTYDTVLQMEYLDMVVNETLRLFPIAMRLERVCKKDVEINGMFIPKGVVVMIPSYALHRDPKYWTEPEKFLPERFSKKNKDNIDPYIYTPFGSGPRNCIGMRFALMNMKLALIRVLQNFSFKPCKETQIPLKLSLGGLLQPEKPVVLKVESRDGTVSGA

In the case of `CC(C)[C@H](NC(=O)N(C)C(C)C)C(=O)N[C@H](CC[C@H](Cc1ccccc1)NC(=O)OCc1cncs1)Cc1ccccc1` [Compound 29], on CYP3A4 [1], the IC50 (commonly the point on the concentration scale where inhibition reaches its midpoint) at 5 min is < 0.1 µM. At CYP3A4 [2], the IC50 is 320 nM.

`CN(C(=O)N[C@@H](CCN1CCOCC1)C(=O)N[C@H](CC[C@H](Cc1ccccc1)NC(=O)OCc1cncs1)Cc1ccccc1)C1CCCCC1` [Compound 19]: the IC50 at 5 min at CYP3A4 [1] amounted to 0.18 µM. Further, the IC50 on CYP3A4 [2] came out at 280 nM.

For `CC(C)c1nc(CN(C)C(=O)N[C@H](C(=O)N[C@H](CC[C@H](Cc2ccccc2)NC(=O)OCc2cccnc2)Cc2ccccc2)C(C)C)cs1` [Compound 73], the IC50 at 5 min on CYP3A4 [1] came out at 0.16 µM. Also, the IC50 at CYP3A4 [2] was determined as 450 nM.

Consider `CN(Cc1ccccn1)C(=O)N[C@@H](CCN1CCOCC1)C(=O)N[C@H](CC[C@H](Cc1ccccc1)NC(=O)OCc1cncs1)Cc1ccccc1` [Compound 61], for which, at CYP3A4 [1], the IC50 at 5 min was 0.19 µM. The IC50 at CYP3A4 [2] was 530 nM.

`CC(=O)NCC[C@H](NC(=O)N1CCCCC1)C(=O)N[C@H](CC[C@H](Cc1ccccc1)NC(=O)OCc1cncs1)Cc1ccccc1` [Compound 40]: the IC50 at 5 min on CYP3A4 [1] was found to be 0.1 µM. In addition, at CYP3A4 [2], the IC50 worked out at 220 nM.

As to `CC(C)[C@H](NC(=O)N1CCOCC1)C(=O)N[C@H](CC[C@H](Cc1ccccc1)NC(=O)OCc1cncs1)Cc1ccccc1` [Compound 27], the IC50 at 5 min on CYP3A4 [1] came to 0.11 µM. For the same compound, the IC50 on CYP3A4 [2] worked out at 250 nM.

As to `O=C(NC1CCCCC1)N[C@@H](CCN1CCOCC1)C(=O)N[C@H](CC[C@H](Cc1ccccc1)NC(=O)OCc1cncs1)Cc1ccccc1` [Compound 18], the IC50 at 5 min on CYP3A4 [1] was 0.18 µM. In addition, the IC50 at CYP3A4 [2] stood at 350 nM.

As to `CC(=O)NCC[C@H](NC(=O)N(C)C(C)C)C(=O)N[C@H](CC[C@H](Cc1ccccc1)NC(=O)OCc1cncs1)Cc1ccccc1` [Compound 35], the IC50 at 5 min on CYP3A4 [1] is 0.15 µM. For the same compound, the IC50 on CYP3A4 [2] turned out to be 150 nM.

Turning to `CN(C)C(=O)N[C@@H](CCN1CCOCC1)C(=O)N[C@H](CC[C@H](Cc1ccccc1)NC(=O)OCc1cncs1)Cc1ccccc1` [Compound 16], the IC50 at 5 min on CYP3A4 [1] is 0.15 µM. For the same compound, at CYP3A4 [2], the IC50 turned out to be 710 nM.

Consider `CN(Cc1cccnc1)C(=O)N[C@@H](CCN1CCOCC1)C(=O)N[C@H](CC[C@H](Cc1ccccc1)NC(=O)OCc1cncs1)Cc1ccccc1` [Compound 59], for which, on CYP3A4 [1], the IC50 at 5 min was < 0.1 µM. Moreover, at CYP3A4 [2], the IC50 was 450 nM.

Take `CC(C)N(C)C(=O)N[C@@H](CCN1CCOCC1)C(=O)N[C@H](CC[C@H](Cc1ccccc1)NC(=O)OCc1cncs1)Cc1ccccc1` [Compound 7]: the IC50 at 5 min at CYP3A4 [1] came to 0.14 µM. Also, the IC50 on CYP3A4 [2] worked out at 310 nM.

Consider `CC(C)CN(C)C(=O)N[C@@H](CCN1CCOCC1)C(=O)N[C@H](CC[C@H](Cc1ccccc1)NC(=O)OCc1cncs1)Cc1ccccc1` [Compound 14], for which the IC50 at 5 min at CYP3A4 [1] stood at 0.13 µM. Also, on CYP3A4 [2], the IC50 amounted to 320 nM.

Turning to `CN(C(=O)N[C@@H](CCN1CCOCC1)C(=O)N[C@H](CC[C@H](Cc1ccccc1)NC(=O)OCc1cncs1)Cc1ccccc1)C(C)(C)C` [Compound 11], the IC50 at 5 min on CYP3A4 [1] amounted to 0.13 µM. In addition, at CYP3A4 [2], the IC50 turned out to be 420 nM.

Consider `CN(Cc1ccc(F)cc1)C(=O)N[C@@H](CCN1CCOCC1)C(=O)N[C@H](CC[C@H](Cc1ccccc1)NC(=O)OCc1cncs1)Cc1ccccc1` [Compound 20], for which the IC50 at 5 min on CYP3A4 [1] turned out to be 0.11 µM. For the same compound, the IC50 at CYP3A4 [2] is 360 nM.

For the compound `CC(C)(C)OC(=O)N[C@@H](CCN1CCOCC1)C(=O)N[C@H](CC[C@H](Cc1ccccc1)NC(=O)OCc1cncs1)Cc1ccccc1` [Compound 54], at CYP3A4 [1], the IC50 at 5 min is < 0.1 µM. The IC50 on CYP3A4 [2] stood at 410 nM.

As to `CC(C)[C@H](NC(=O)N1CCN(C)CC1)C(=O)N[C@H](CC[C@H](Cc1ccccc1)NC(=O)OCc1cncs1)Cc1ccccc1` [Compound 28], on CYP3A4 [1], the IC50 at 5 min was determined as 0.19 µM. At CYP3A4 [2], the IC50 was found to be 470 nM.

In the case of `CC(C)c1nc(CN(C)C(=O)N[C@H](C(=O)N[C@H](CC[C@H](Cc2ccccc2)NC(=O)CCc2cccs2)Cc2ccccc2)C(C)C)cs1` [Compound 89], the IC50 at 5 min on CYP3A4 [1] was 0.7 µM. The IC50 at CYP3A4 [2] stood at 2300 nM.

As for `CC(=O)NCC[C@H](NC(=O)N(C)C(C)C)C(=O)N[C@@H](CC[C@@H](Cc1ccccc1)NC(=O)OCc1cncs1)Cc1ccccc1` [Compound 36], at CYP3A4 [1], the IC50 at 5 min is < 0.1 µM. On CYP3A4 [2], the IC50 came out at 240 nM.

Take `CN(Cc1ccccc1)C(=O)N[C@@H](CCN1CCOCC1)C(=O)N[C@H](CC[C@H](Cc1ccccc1)NC(=O)OCc1cncs1)Cc1ccccc1` [Compound 17]: at CYP3A4 [1], the IC50 at 5 min was found to be 0.13 µM. Moreover, the IC50 on CYP3A4 [2] amounted to 300 nM.

As to `COCCN(C)C(=O)N[C@@H](CCN1CCOCC1)C(=O)N[C@H](CC[C@H](Cc1ccccc1)NC(=O)OCc1cncs1)Cc1ccccc1` [Compound 21], the IC50 at 5 min on CYP3A4 [1] is 0.26 µM. Also, the IC50 at CYP3A4 [2] came out at 560 nM.

On to `O=C(N[C@H](CC[C@H](Cc1ccccc1)NC(=O)[C@H](CCN1CCOCC1)NC(=O)N1CCCC1)Cc1ccccc1)OCc1cncs1` [Compound 10], for which the IC50 at 5 min at CYP3A4 [1] stood at 0.22 µM. Also, the IC50 at CYP3A4 [2] amounted to 320 nM.

With `CC(C)N(C)C(=O)N[C@H](CCN1CCOCC1)C(=O)N[C@H](CC[C@H](Cc1ccccc1)NC(=O)OCc1cncs1)Cc1ccccc1` [Compound 53], the IC50 at 5 min on CYP3A4 [1] is < 0.1 µM. In addition, the IC50 at CYP3A4 [2] is 260 nM.

For `CN1CCN(C(=O)N[C@@H](CCN2CCOCC2)C(=O)N[C@H](CC[C@H](Cc2ccccc2)NC(=O)OCc2cncs2)Cc2ccccc2)CC1` [Compound 15], the IC50 at 5 min at CYP3A4 [1] turned out to be 0.41 µM. The IC50 at CYP3A4 [2] came out at 1100 nM.

For `CN(Cc1ccco1)C(=O)N[C@@H](CCN1CCOCC1)C(=O)N[C@H](CC[C@H](Cc1ccccc1)NC(=O)OCc1cncs1)Cc1ccccc1` [Compound 60], the IC50 at 5 min on CYP3A4 [1] was 0.13 µM. The IC50 on CYP3A4 [2] was 290 nM.

Take `O=C(N[C@H](CC[C@H](Cc1ccccc1)NC(=O)[C@H](CCN1CCOCC1)NC(=O)N1CCOCC1)Cc1ccccc1)OCc1cncs1` [Compound 12]: the IC50 at 5 min on CYP3A4 [1] was 0.2 µM. Also, the half-inhibitory concentration (IC50) at CYP3A4 [2] came to 640 nM.

Regarding `Cc1ncsc1CCC(=O)N[C@H](CC[C@H](Cc1ccccc1)NC(=O)[C@@H](NC(=O)N(C)Cc1csc(C(C)C)n1)C(C)C)Cc1ccccc1` [Compound 90], at CYP3A4 [1], the IC50 at 5 min came to 0.19 µM. For the same compound, on CYP3A4 [2], the IC50 turned out to be 450 nM.

Turning to `CC(C)c1nc(CN(C)C(=O)N[C@H](C(=O)N[C@H](CC[C@H](Cc2ccccc2)NC(=O)OC(C)(C)C)Cc2ccccc2)C(C)C)cs1` [Compound 70], the IC50 at 5 min on CYP3A4 [1] was 0.72 µM. The IC50 at CYP3A4 [2] was 1500 nM.

`O=C(N[C@H](CC[C@H](Cc1ccccc1)NC(=O)[C@@H]1C[C@@H](O)CN1C(=O)OCc1ccccc1)Cc1ccccc1)OCc1cncs1` [Compound 67]: the IC50 at 5 min on CYP3A4 [1] was 0.18 µM. Also, the IC50 at CYP3A4 [2] was 210 nM.

Take `CC(=O)NCC[C@H](NC(=O)N1CCCCC1)C(=O)N[C@@H](CC[C@@H](Cc1ccccc1)NC(=O)OCc1cncs1)Cc1ccccc1` [Compound 41]: the IC50 at 5 min at CYP3A4 [1] is < 0.1 µM. The IC50 at CYP3A4 [2] stood at 400 nM.
